Experimental data published in PMC7998309, “Structural-Based Optimizations of the Marine-Originated Meridianin C as Glucose Uptake Agents by Inhibiting GSK-3β” (Marine Drugs, 2021).

Experiments:
human GSK-3β = target: T1, human GSK-3β (Homo sapiens, UniProt P49841); assay: Inhibition of recombinant GSK-3β (Z-lyte assay); assay type: biochemical; details: for IC50: human GSK-3β, top concentration 30 μM
T1 construct: purchased Invitrogen
Experimental: The activity of recombinant GSK-3β (Invitrogen) was measured in a Z-lyte assay of Invitrogen. In this assay, 100 nL of the compound solution in DMSO was transferred to a 384-well assay plate (the compound got threefold serial dilution, and the top concentration of the compound was 30 μM in the final reaction mixture). Then 5 μL of an enzyme (2 nM) and Ser/Thr 9 peptide (4 μM) mixture was added. After the enzyme and peptide pre-incubation with the compound for 30 min at 23 °C, 5 μL of ATP (12 μM) solution was added. The plate was incubated for 60 min at 23 °C. The reaction was stopped with 5 μL of development reagent. Fluorescence signals were detected with Envision (PerkinElmer, America) after 30 min of incubation, and the emission ratio (RFU 460 nm/RFU 535 nm) was used to analyze the data. The relative IC50 was reported using four-parameter logistic fit of IDBS Xlfit software. The IC50 values were calculated using the following equation: %Phosphorylation = 1 - (Emission Ratio × F100%) - C100%/(C0% - C100%) + [Emission Ratio × (F100% - F0%)] where
Emission ratio = Coumarin/Fluorescein ratio of sample wells
C100% = Average coumarin emission signal of the 100% phos. control
C0% = Average coumarin emission signal of the 0% phos. control
F100% = Average fluorescein emission signal of the 100% phos. control
F0% = Average fluorescein emission signal of the 0% phos. control %Inhibition = {1 - %Phos Sample/%Phos 0%Inhibition Ctl}*100

HepG2 cells [1] = assay: Cell glucose uptake assay in HepG2 cells; assay type: cell-based, human; details: relative glucose uptake at 5 µM in HepG2 cells, 3 h, compared with original glucose concentration of the medium; na = not active at 5 µM
Experimental: (§1) The hepatocyte cell line HepG2 cells obtained from the Type Culture Collection of the Chinese Academy of Sciences (Shanghai, China) were maintained in high-glucose DMEM (Gibco) supplemented with 10% fetal bovine serum (FBS) and 1% penicillin-streptomycin in an atmosphere of 5% CO2 at 37 °C.
Into a 96-well plate, 5 × 10^3 HepG2 cells per well were seeded. After 48 h, phenol red-free DMEM (Gibco) with 1% FBS was transferred to deprive the cells overnight, and then the tested compounds dissolved in a glucose-HEPES buffer (glucose concentration was 100 µg/mL) at a concentration of 5 µM were added to the culture system. Three hours later, the culture supernatants were collected and the glucose concentrations were detected using the Glucose (GO) Assay Kit (Sigma-Aldrich Corp.). Compared with the original glucose concentration of the buffer, the relative glucose uptake was calculated.

[2] = MTT assay for cell viability (cytotoxicity); assay type: cell-based, human; details: human; HepG2 cells, 48 h incubation, MTT
Experimental: as §1
(§2) Into a 96-well plate, 1 × 10^3 HepG2 cells per well were seeded. After 24 h, stock solutions of test compounds in DMSO were diluted in DMEM to ≤0.1% final DMSO concentration. Cells were treated with various concentrations (2.5–25 µM) of tested compounds for 48 h, and the MTT solution (0.5 mg/mL) was added. After 4 h of incubation at 37 °C for MTT-formazan formation, the supernatant was discarded and 100 µL of DMSO was applied into each well to dissolve formazan crystals. Absorbance at 490 nm was determined spectrophotometrically by using a microplate reader (Epoch, BioTek Instruments, Inc., Winooski, VT, USA).

HepG2 cells [3] = assay: MTT assay for cell viability (cytotoxicity); assay type: cell-based, human
Experimental: as §1, §2

T1 sequence (P49841 whole entry): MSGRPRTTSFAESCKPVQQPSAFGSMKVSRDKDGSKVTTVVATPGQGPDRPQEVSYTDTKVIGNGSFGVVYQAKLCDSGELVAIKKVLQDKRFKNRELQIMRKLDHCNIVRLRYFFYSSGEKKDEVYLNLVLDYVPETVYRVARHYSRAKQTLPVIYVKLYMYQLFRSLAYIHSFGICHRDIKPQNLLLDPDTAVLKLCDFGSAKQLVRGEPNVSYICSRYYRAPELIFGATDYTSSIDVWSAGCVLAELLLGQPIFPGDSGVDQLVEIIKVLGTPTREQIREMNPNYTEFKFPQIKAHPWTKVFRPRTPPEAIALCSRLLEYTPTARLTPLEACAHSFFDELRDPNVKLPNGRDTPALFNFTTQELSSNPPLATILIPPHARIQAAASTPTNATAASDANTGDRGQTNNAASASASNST

| IC50 (human GSK-3β) [µM] | melting point [°C] | inhibitory activity against GSK-3β at 30 µM (in words) (human GSK-3β) | SMILES | Cell Glucose Uptake (%) (HepG2 cells [1]) | CC50 at 48 h [2] [µM] | toxicity against HepG2 cells (in words) (HepG2 cells [3]) |
| --- | --- | --- | --- | --- | --- | --- |
| 24.4 | 228.5 to 229.4 | – | Cc1cccc(C)c1Nc1nccc(-c2c[nH]c3ccc(Br)cc23)n1 [B30, 4-(5-Bromo-1H-indol-3-yl)-N-(2,6-dimethylphenyl) pyrimidin-2-amine] | 38 | 18.1 | no significant toxicity |
| 5.85 | 263.3 to 264.2 | – | Fc1cccc(F)c1Nc1nccc(-c2c[nH]c3ccc(Br)cc23)n1 [B29, 4-(5-Bromo-1H-indol-3-yl)-N-(2,6-difluorophenyl) pyrimidin-2-amine] | 29 | 22.4 | no significant toxicity |
| > 30 | 147.4 to 148.3 | no apparent inhibitory activity | Nc1ncc(-c2ccc(NC(=O)c3ccccc3Br)cc2)c(-c2c[nH]c3ccc(Br)cc23)n1 [A13, N-(4-(2-amino-4-(5-bromo-1H-indol-3-yl)pyrimidin-5-yl)phenyl)-2-bromobenzamide] | 27 | > 25 | – |
| > 30 | 177.7 to 178.5 | no apparent inhibitory activity | Nc1ncc(-c2ccc(NC(=O)c3cc(Cl)cc(Cl)c3)cc2)c(-c2c[nH]c3ccc(Br)cc23)n1 [A26, N-(4-(2-amino-4-(5-bromo-1H-indol-3-yl)pyrimidin-5-yl)phenyl)-3,5-dichlorobenzamide] | 22 | 14.3 | – |
